Literature values as cited in patent US20240141352A1, “CHAPERONIN-CONTAINING TCP-1 INHIBITORS FOR THE TREATMENT OF CANCER” (UNIVERSITY OF CENTRAL FLORIDA RESEARCH FOUNDATION, INC., priority 2021, published 2024).

Assays:
MDA-MB-231 cells = details: MDA-MB-231 spheroids
[1] = test system: breast and prostate tumors; details: systemic delivery with polymeric nanoparticles
CCT2 subunit = biological target: T1, CCT2 subunit (Homo sapiens, UniProt P78371)
T1 sequence (P78371 1-535): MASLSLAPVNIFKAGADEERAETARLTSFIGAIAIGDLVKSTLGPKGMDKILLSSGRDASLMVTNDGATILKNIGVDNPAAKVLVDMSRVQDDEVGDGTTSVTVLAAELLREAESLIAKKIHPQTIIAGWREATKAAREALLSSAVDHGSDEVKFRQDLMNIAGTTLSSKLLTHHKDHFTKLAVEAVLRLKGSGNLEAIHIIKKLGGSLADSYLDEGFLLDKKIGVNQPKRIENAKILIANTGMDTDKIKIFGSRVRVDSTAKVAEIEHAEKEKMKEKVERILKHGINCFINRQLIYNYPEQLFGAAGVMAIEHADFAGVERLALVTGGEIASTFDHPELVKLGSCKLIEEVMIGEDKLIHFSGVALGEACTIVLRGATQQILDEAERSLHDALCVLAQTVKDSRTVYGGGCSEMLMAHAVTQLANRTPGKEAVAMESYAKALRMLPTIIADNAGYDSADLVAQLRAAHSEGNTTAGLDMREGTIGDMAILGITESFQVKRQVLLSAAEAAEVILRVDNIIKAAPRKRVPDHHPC

[2] = test system: cancer cells that highly express CCT

Row | Compound | resistance of spheroids to treatment (MDA-MB-231 cells) | tumor regression [1] | binding to CCT2 subunit (CCT2 subunit) | cytotoxicity [2]
1 | N.N.O=C([O-])C1(C(=O)[O-])CCC1.[Pt+2] [carboplatin] | increased resistance |  |  | 
2 | COc1cccc2c1C(=O)c1c(O)c3c(c(O)c1C2=O)C[C@@](O)(C(=O)CO)C[C@@H]3O[C@H]1C[C@H](N)[C@H](O)[C@H](C)O1 [doxorubicin] | increased resistance |  |  | 
3 | VTIFVAGVLTASLTIWKKMG [CT20p] |  | regression | directly binds | cytotoxic
